In ChEMBL document CHEMBL1909046, “DrugMatrix in vitro pharmacology data”:
pIC50, pKi: −log10 of the molar value.

Tests used:
[1] = molecular target: T1, Cytochrome P450 2A6 (Homo sapiens, UniProt P11509); conditions: bti-tn-5b1-4; also: in other assays of this panel Not Active means under 50% inhibition at 10 µM
T1 sequence (P11509 whole entry): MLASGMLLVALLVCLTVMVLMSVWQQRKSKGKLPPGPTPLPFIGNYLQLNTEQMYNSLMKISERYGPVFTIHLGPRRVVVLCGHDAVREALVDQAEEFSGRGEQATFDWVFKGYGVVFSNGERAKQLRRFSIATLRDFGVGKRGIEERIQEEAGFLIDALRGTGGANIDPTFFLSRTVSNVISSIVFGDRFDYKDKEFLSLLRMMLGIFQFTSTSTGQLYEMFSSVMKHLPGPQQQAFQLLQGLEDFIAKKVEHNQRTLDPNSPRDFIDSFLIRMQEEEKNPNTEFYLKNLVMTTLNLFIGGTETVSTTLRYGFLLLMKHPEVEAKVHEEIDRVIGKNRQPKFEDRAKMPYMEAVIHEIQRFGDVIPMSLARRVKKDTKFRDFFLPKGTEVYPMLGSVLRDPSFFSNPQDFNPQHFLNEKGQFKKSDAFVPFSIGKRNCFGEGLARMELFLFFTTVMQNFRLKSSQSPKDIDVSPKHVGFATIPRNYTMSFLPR

[2] = molecular target: Cannabinoid receptor 1 (Homo sapiens, UniProt P21554); type: cell membranes, Membrane; conditions: chem-1; also: in other assays of this panel Not Active means under 50% inhibition at 10 µM
[3] = molecular target: Sodium-dependent noradrenaline transporter (Homo sapiens, UniProt P23975); test: DRUGMATRIX: Norepinephrine Transporter radioligand binding (ligand: [125I] RTI-55); type: cell membranes, MDCK, Membrane; conditions: Not Active = under 50% inhibition at 10 µM; for IC50: mdck; for pIC50: read-out: IC50; for pKi: read-out: Ki
[4] = molecular target: T2, Alpha-1B adrenergic receptor (Rattus norvegicus, UniProt P15823); test: DRUGMATRIX: Alpha-1B adrenergic receptor radioligand binding (ligand: prazosin); type: cell membranes, Wistar, Liver, Membrane; conditions: Not Active = under 50% inhibition at 10 µM
T2 sequence (P15823 whole entry): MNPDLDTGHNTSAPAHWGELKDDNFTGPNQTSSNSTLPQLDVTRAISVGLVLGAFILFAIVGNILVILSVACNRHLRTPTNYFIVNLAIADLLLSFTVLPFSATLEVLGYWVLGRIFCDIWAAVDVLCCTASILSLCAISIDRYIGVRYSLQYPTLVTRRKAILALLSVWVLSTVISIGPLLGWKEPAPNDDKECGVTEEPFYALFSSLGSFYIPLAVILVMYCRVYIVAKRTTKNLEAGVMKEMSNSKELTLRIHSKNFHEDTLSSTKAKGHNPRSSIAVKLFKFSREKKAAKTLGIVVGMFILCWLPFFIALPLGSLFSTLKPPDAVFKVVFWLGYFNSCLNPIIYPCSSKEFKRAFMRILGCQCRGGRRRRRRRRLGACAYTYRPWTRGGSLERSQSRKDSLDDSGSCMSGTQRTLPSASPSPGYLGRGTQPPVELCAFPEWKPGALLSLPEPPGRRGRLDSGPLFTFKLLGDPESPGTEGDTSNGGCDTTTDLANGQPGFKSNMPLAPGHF

[5] = molecular target: Receptor tyrosine-protein kinase erbB-2 (Homo sapiens, UniProt P04626); test: biochemical; type: cell-based, Insect cells; conditions: for IC50: insect cells; for pIC50: read-out: IC50;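 as to all read-outs here: inhibition of HER2 kinase enzyme activity, measured with Poly(Glu:Tyr) as the phosphorylation substrate; in other assays of this panel Not Active means under 50% inhibition at 10 µM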
[6] = DRUGMATRIX: beta-Lactamase enzyme inhibition (substrate: Nitrocefin); parameters: species or system Bacillus cereus; conditions: Not Active = under 50% inhibition at 10 µM
[7] = DRUGMATRIX: GABAA, Muscimol, Central radioligand binding (ligand: [3H] Muscimol); type: cell membranes, Rattus norvegicus, Wistar, Brain, Membrane; conditions: Not Active = under 50% inhibition at 10 µM

Sequence of Sodium-dependent noradrenaline transporter (P23975 whole entry): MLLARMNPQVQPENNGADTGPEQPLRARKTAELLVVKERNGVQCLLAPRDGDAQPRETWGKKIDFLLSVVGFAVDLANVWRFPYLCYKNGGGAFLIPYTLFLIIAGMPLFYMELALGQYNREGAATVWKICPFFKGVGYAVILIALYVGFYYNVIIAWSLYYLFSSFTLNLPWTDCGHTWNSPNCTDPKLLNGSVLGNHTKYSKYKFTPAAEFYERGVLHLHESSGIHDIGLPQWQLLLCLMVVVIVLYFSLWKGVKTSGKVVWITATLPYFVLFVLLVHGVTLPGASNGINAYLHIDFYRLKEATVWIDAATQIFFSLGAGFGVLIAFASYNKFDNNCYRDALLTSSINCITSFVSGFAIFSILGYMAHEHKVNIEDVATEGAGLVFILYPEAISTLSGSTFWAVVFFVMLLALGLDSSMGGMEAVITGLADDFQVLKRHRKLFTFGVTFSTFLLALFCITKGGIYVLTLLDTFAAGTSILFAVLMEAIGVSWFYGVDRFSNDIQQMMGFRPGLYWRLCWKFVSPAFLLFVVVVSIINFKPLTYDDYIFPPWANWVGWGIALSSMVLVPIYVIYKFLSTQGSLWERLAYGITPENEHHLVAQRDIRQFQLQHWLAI
Sequence of Receptor tyrosine-protein kinase erbB-2 (P04626 whole entry): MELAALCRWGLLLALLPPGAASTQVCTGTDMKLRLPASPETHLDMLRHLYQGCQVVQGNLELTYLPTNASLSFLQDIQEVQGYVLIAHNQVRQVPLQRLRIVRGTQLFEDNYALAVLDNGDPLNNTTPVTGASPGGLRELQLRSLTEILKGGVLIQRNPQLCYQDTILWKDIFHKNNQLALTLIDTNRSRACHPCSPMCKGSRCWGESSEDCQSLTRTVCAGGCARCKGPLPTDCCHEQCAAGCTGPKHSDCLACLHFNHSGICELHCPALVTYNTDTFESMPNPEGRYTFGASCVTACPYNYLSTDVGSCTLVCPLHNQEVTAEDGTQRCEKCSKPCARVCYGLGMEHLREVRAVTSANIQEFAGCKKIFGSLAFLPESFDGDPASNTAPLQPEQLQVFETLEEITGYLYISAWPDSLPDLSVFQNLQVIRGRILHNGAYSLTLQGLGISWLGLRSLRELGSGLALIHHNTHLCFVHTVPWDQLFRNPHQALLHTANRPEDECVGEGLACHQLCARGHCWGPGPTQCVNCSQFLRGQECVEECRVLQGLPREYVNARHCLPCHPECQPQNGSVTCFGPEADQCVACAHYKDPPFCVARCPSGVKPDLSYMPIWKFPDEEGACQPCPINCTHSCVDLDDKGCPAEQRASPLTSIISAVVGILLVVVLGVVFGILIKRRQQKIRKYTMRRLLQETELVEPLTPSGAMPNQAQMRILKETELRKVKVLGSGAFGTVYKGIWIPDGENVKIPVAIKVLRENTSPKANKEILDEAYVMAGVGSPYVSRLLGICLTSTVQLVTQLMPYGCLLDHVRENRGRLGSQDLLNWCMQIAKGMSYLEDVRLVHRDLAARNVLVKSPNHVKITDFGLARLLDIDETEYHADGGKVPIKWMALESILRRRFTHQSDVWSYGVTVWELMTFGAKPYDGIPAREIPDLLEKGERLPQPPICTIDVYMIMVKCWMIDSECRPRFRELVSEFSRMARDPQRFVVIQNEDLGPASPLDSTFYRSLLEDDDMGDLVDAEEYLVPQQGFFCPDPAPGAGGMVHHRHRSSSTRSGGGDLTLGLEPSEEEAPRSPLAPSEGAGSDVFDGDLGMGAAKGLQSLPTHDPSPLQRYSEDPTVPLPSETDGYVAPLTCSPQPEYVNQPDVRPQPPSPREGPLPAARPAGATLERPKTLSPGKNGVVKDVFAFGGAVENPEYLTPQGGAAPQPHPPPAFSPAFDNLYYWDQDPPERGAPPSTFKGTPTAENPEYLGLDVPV
Sequence of Cannabinoid receptor 1 (P21554 whole entry): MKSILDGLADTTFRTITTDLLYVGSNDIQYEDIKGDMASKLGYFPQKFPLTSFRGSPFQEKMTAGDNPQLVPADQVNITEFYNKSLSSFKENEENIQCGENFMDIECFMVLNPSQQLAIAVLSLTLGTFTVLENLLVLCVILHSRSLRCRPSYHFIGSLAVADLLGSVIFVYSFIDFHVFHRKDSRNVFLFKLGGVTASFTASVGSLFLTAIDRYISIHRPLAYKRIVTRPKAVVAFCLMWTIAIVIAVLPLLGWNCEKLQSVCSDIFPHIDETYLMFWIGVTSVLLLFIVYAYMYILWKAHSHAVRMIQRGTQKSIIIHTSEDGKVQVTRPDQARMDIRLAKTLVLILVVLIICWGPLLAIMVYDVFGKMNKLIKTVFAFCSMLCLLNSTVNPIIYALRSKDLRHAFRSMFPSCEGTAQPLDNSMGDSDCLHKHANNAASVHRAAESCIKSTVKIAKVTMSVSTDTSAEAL

Compound	IC50 [1]	Ki [1]	IC50 [2]	IC50 [3]	IC50 [4]	IC50 [5]	IC50 [6]	Ki [6]	IC50 [7]	Ki [7]	pIC50 [5]	pIC50 [3]	pKi [3]
CC(C)(C)NC(=O)[C@@H]1C[C@@H]2CCCC[C@@H]2CN1C[C@@H](O)[C@H](Cc1ccccc1)NC(=O)[C@H](CC(N)=O)NC(=O)c1ccc2ccccc2n1	Not Active	Not Active	Not Active	Not Active	Not Active	Not Active	Not Active	Not Active	Not Active	Not Active			
CC(=O)[C@@]1(O)CC[C@H]2[C@@H]3C[C@H](C)C4=CC(=O)CC[C@]4(C)[C@H]3CC[C@@]21C	Not Active	Not Active	Not Active	Not Active	Not Active	Not Active	Not Active	Not Active	Not Active	Not Active			
N[C@@H](Cc1ccc(N(CCCl)CCCl)cc1)C(=O)O	Not Active	Not Active	Not Active	Not Active	Not Active	Not Active	Not Active	Not Active	Not Active	Not Active			
CCCCc1oc2ccccc2c1C(=O)c1cc(I)c(OCCN(CC)CC)c(I)c1 [AMIODARONE]	Not Active	Not Active	Not Active								5.04		
OCCN(CCO)c1nc(N2CCCCC2)c2nc(N(CCO)CCO)nc(N3CCCCC3)c2n1 [DIPYRIDAMOLE]	Not Active	Not Active	Not Active	Not Active	Not Active	Not Active	Not Active	Not Active	Not Active	Not Active			
Cc1oncc1C(=O)Nc1ccc(C(F)(F)F)cc1 [LEFLUNOMIDE]	Not Active	Not Active	Not Active		Not Active	Not Active	Not Active	Not Active	Not Active	Not Active			
c1ccc([C@H]2CN3CCSC3=N2)cc1 [LEVAMISOLE]	Not Active	Not Active	Not Active	Not Active	Not Active	Not Active	Not Active	Not Active	Not Active	Not Active			
N[C@@H](Cc1ccc(O)c(O)c1)C(=O)O [LEVODOPA]	Not Active	Not Active	Not Active	Not Active	Not Active	Not Active	Not Active	Not Active	Not Active	Not Active			
N[C@@H](Cc1cc(I)c(Oc2ccc(O)c(I)c2)c(I)c1)C(=O)O [LIOTHYRONINE]	Not Active	Not Active	Not Active	Not Active	Not Active	Not Active							
O=NN(CCCl)C(=O)NC1CCCCC1 [LOMUSTINE]	Not Active	Not Active	Not Active	Not Active	Not Active	Not Active	Not Active	Not Active	Not Active	Not Active			
CCOC(=O)N1CCC(=C2c3ccc(Cl)cc3CCc3cccnc32)CC1 [LORATADINE]	Not Active	Not Active	Not Active	Not Active	Not Active	Not Active	Not Active	Not Active	Not Active	Not Active			
Cn1ccnc1S [METHIMAZOLE]	Not Active	Not Active	Not Active	Not Active	Not Active	Not Active	Not Active	Not Active	Not Active	Not Active			
CC[C@@H](CO)NC(=O)[C@@H]1C=C2c3cccc4[nH]cc(c34)C[C@H]2N(C)C1 [METHYLERGONOVINE]	Not Active	Not Active	Not Active	Not Active	Not Active	Not Active	Not Active	Not Active	Not Active	Not Active			
COc1nc(C)nc(Cl)c1NC1=NCCN1 [MOXONIDINE]	Not Active	Not Active	Not Active	Not Active	Not Active	Not Active	Not Active	Not Active	Not Active	Not Active			
COc1c(C)c2c(c(O)c1C/C=C(\C)CCC(=O)O)C(=O)OC2 [MYCOPHENOLIC ACID]	Not Active	Not Active	Not Active	Not Active	Not Active	Not Active	Not Active	Not Active	Not Active	Not Active			
O=c1ncn2nc(Sc3ccc(F)cc3F)ccc2c1-c1c(Cl)cccc1Cl [NEFLAMAPIMOD]	Not Active	Not Active	Not Active		Not Active	Not Active	Not Active	Not Active	Not Active	Not Active		4.69	4.69
CN1CCN(CCCN2c3ccccc3Sc3ccc(Cl)cc32)CC1 [PROCHLORPERAZINE]	Not Active	Not Active	Not Active			Not Active							
CO[C@H]1/C=C/O[C@@]2(C)Oc3c(C)c(O)c4c(O)c(c(/C=N/N5CCN(C)CC5)c(O)c4c3C2=O)NC(=O)/C(C)=C\C=C\[C@H](C)[C@H](O)[C@@H](C)[C@@H](O)[C@@H](C)[C@H](OC(C)=O)[C@@H]1C [RIFAMPIN]	Not Active	Not Active	Not Active	Not Active	Not Active	Not Active	Not Active	Not Active	Not Active	Not Active			
Nc1nc2ccc(OC(F)(F)F)cc2s1 [RILUZOLE]			Not Active		Not Active	Not Active	Not Active	Not Active	Not Active	Not Active		5.76	5.76
Cc1nc2n(c(=O)c1CCN1CCC(c3noc4cc(F)ccc34)CC1)CCCC2 [RISPERIDONE]	Not Active	Not Active	Not Active	Not Active		Not Active							
C=CCC1(C(C)CCC)C(=O)NC(=O)NC1=O (configuration not stated) [SECOBARBITAL]	Not Active	Not Active	Not Active	Not Active	Not Active	Not Active	Not Active	Not Active	Not Active	Not Active			
C[C@@H]1CN(c2c(F)c(N)c3c(=O)c(C(=O)O)cn(C4CC4)c3c2F)C[C@H](C)N1 [SPARFLOXACIN]	Not Active	Not Active	Not Active	Not Active	Not Active	Not Active	Not Active	Not Active	Not Active	Not Active			
Cc1noc(NS(=O)(=O)c2ccc(N)cc2)c1C [SULFISOXAZOLE]	Not Active	Not Active	Not Active	Not Active	Not Active	Not Active	Not Active	Not Active	Not Active	Not Active			
CSc1ccc(/C=C2/C(C)=C(CC(=O)O)c3cc(F)ccc32)cc1 [SULINDAC SULFIDE]	Not Active	Not Active	Not Active	Not Active	Not Active	Not Active	Not Active	Not Active	Not Active	Not Active			
CC/C(=C(\c1ccccc1)c1ccc(OCCN(C)C)cc1)c1ccccc1 [TAMOXIFEN]	Not Active	Not Active	Not Active								5.53	5.83	5.84
CC(C)N1CCN(c2ccc(OCC3COC(Cn4cncn4)(c4ccc(Cl)cc4Cl)O3)cc2)CC1 (configuration not stated) [TERCONAZOLE]	Not Active	Not Active	Not Active			Not Active	Not Active	Not Active	Not Active	Not Active			
